In patent publication EP0327744A1, “Oxytocin and vasopressin antagonists” (Merck & Co., Inc., priority 1988, dated 1989):
Where two headings read alike, the source gives them in different places. Each block holds one compound with its values, some of them ahead of it. Numbered stars: 1 amine (or outer) side, 2 acyl side, 3 side chain; on linkers, the order of the positions; unused ones are H or OH. Square brackets hold non-standard residues; d marks the D form. Peptide text beside a SMILES is read from it. ξ: configuration not given here. ξN(OH)Ile(3ξ) = CCC(C)C(NO)C(=O)O; NMeF = CN[CH](Cc1ccccc1)C(=O)O; X1 = O=C(C1CCCNN1[*:1])[*:2]

How the values were obtained:
V₁(pressor)-receptor = target: T1, V₁(pressor)-receptor (Rattus norvegicus, UniProt P30560); experiment: [³H]Arginine Vasopressin Binding Assay, liver membranes (V₁)
T1 construct: crude membrane preparation of rat liver (V₁ receptor); from tissue; host or cells: rat liver, crude membrane preparation
From the text: (§1) The table summarizes the in vitro potencies of the various components to compete for ³H-vasopressin binding at two proposed vasopressin receptor subtypes (V₁, V₂), as well as to inhibit vasopressin-stimulated adenylate cyclase activity, a further measure of vasopressin antagonism.
(§2) The [³H]Arginine Vasopressin Binding Assay is an in vitro procedure which was adapted from the method of Guillon et al., Eur. J. Pharmacol. 85: […] (1982). It measures the relative affinity of the various test compounds for vasopressin receptor(s) labelled by [³H]vasopressin. Vasopressin receptors have been divided into two subtypes pharmacologically: the V₁(pressor)-receptor found in liver and vascular smooth muscle and the V₂(antidiuretic)-receptor found in kidney medulla. The binding assay uses a crude membrane preparation of rat liver (V₁ receptor) or kidney medulla (V₂ receptor) which is incubated with [³H]vasopressin in the presence or absence of the test compound. The IC₅₀ values (concentrations to inhibit [³H]vasopressin binding by 50%) for the various compounds (see Table III) are measures of their potencies and are inversely related to their affinities.

[1] = target: T2, V₂(antidiuretic)-receptor (Rattus norvegicus, UniProt Q00788); experiment: [³H]Arginine Vasopressin Binding Assay, kidney medulla membranes (V₂)
T2 construct: crude membrane preparation of rat liver (V₁ receptor) or kidney medulla (V₂ receptor); from tissue; host or cells: rat kidney medulla, crude membrane preparation
From the text: as §1, §2

[2] = target: T3, Vasopressin-stimulated adenylate cyclase in kidney medulla (V₂) (Rattus norvegicus, UniProt Q00788); experiment: Vasopressin-stimulated adenylate cyclase functional assay in kidney medulla (V₂ antagonism); format: biochemical
T3 construct: Vasopressin-stimulated adenylate cyclase in kidney medulla, therefore, is used as a functional assay; from tissue
From the text: as §1
Vasopressin exerts its antidiuretic effects on the kidney through the stimulation of adenylate cyclase activity. Vasopressin-stimulated adenylate cyclase in kidney medulla, therefore, is used as a functional assay to determine the potencies of the various test compounds as V₂-vasopressin antagonists. In this assay, the IC₅₀ values obtained for the various compounds (see Table III) are measures of their potencies to inhibit the vasopressin-stimulated conversion of ATP to cAMP by adenylate cyclase. This method was adapted from Seamon et al., PNAS 78: 3363-3367 (1981).

oxytocin receptor = target: T4, oxytocin receptor (Rattus norvegicus, UniProt P70536); experiment: [³H]Oxytocin Binding Assay (crude membrane preparation of rat uterus); conditions: inhibition of [³H]oxytocin binding, rat uterus membranes; read-out: IC₅₀ (nM) [³H]OT (uterus)
T4 construct: crude membrane preparation of rat uterus as the source of oxytocin receptors; from tissue; host or cells: rat uterus, crude membrane preparation
T4 sequence (P70536 1-388): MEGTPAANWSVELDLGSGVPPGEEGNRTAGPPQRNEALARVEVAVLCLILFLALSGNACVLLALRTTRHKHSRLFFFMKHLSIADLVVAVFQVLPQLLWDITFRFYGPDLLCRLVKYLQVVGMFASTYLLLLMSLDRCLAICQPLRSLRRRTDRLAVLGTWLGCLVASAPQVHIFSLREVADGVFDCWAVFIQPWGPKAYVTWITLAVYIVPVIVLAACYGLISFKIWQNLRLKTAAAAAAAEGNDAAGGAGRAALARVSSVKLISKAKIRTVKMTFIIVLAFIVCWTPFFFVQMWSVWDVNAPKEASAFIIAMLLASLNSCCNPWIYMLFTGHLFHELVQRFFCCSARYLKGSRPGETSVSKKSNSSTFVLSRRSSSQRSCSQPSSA
From the text: Oxytocin receptors have been identified in mammalian uterine tissue through the use of in vitro radioligand binding assays. These receptor binding sites mediate the contractile response of the uterine myometrium to oxytocin. […] The assay uses a crude membrane preparation of rat uterus as the source of oxytocin receptors. […]

[3] = IC₅₀ Values ³H-Arg⁸-Vasopressin Binding Liver (V₁), rat liver membranes, mean ± standard error
[4] = IC₅₀ Values ³H-Arg⁸-Vasopressin Binding Kidney (V₂), rat kidney medulla membranes, mean ± standard error

T3 sequence (Q00788 whole entry): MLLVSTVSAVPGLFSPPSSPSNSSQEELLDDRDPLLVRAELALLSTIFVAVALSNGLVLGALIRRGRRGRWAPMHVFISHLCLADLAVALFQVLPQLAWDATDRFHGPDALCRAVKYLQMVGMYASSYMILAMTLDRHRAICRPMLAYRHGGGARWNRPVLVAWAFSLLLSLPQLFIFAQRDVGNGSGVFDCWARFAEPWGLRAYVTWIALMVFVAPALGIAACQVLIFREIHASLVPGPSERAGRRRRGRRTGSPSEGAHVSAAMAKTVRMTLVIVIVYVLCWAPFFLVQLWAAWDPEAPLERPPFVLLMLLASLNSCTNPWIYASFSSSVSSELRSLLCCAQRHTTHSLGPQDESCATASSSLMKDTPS
T2 sequence (Q00788 whole entry): as above
T1 sequence (P30560 whole entry): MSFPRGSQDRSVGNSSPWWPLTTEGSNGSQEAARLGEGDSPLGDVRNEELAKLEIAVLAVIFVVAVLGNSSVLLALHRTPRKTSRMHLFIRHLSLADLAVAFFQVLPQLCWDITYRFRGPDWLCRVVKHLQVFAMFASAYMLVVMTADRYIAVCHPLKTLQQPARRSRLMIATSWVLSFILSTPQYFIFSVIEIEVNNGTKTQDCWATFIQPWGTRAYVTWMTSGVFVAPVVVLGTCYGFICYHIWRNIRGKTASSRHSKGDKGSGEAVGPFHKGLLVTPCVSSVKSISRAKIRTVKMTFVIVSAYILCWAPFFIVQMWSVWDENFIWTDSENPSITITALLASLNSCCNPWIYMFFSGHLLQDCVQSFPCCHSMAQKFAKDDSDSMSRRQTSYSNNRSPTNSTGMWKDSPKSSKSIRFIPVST

Compound: CC(C)C1C(=O)N2NCCCC2C(=O)N2NCCCC2C(=O)N(C)C(Cc2ccccc2)C(=O)N2CCCC2C(=O)NC(Cc2ccccc2)C(=O)N1O (centres unmarked) [Component A]
IC50 (V₁(pressor)-receptor; [3]): 6.8 µM
IC50 [1, 4]: 7.9 µM
IC50 [2]: 19 µM

Compound: CC(C)CC1C(=O)N2NCCCC2C(=O)N2NCCCC2C(=O)N(C)C(Cc2ccccc2)C(=O)N2CCCC2C(=O)NC(C(C)C)C(=O)N1O (centres unmarked) [Component B]
IC50 (V₁(pressor)-receptor; [3]): 67.3 ± 16.5 µM
IC50 [1, 4]: 35.3 ± 6.1 µM
IC50 [2]: 62.7 ± 4.6 µM

Compound: CC(C)CC1C(=O)N2NCCCC2C(=O)N2NCCCC2C(=O)N(C)C(Cc2ccccc2)C(=O)N2CCCC2C(=O)NC(Cc2ccccc2)C(=O)N1O (centres unmarked) [Component C]
IC50 (V₁(pressor)-receptor; IC₅₀ Values ³H-Arg⁸-Vasopressin Binding Liver (V₁), rat liver membranes, molar IC₅₀ in brackets, based on MW of 700): 6 µM
IC50 (V₁(pressor)-receptor; IC₅₀ Values ³H-Arg⁸-Vasopressin Binding Liver (V₁), rat liver membranes, value in µg/ml (exact MW not known)): 5.53 µM
IC50 ([1]; IC₅₀ Values ³H-Arg⁸-Vasopressin Binding Kidney (V₂), rat kidney medulla membranes, molar IC₅₀ in brackets, based on MW of 700): 13 µM
IC50 ([1]; IC₅₀ Values ³H-Arg⁸-Vasopressin Binding Kidney (V₂), rat kidney medulla membranes, value in µg/ml (exact MW not known)): 11.9 µM
IC50 ([2]; read-out: IC₅₀ Values AVP-stimulated Ad. Cyclase Kidney (V₂), kidney medulla, molar IC₅₀ in brackets, based on MW of 700): 13 µM
IC50 ([2]; read-out: IC₅₀ Values AVP-stimulated Ad. Cyclase Kidney (V₂), kidney medulla, value in µg/ml (exact MW not known)): 12.1 µM

IC50 (V₁(pressor)-receptor; rat liver membranes, molar IC₅₀ in brackets, based on MW of 700, read-out: IC₅₀ Values ³H-Arg⁸-Vasopressin Binding Liver (V₁) (converted)): 30 µM
IC50 (V₁(pressor)-receptor; rat liver membranes, value in µg/ml (exact MW not known), read-out: IC₅₀ Values ³H-Arg⁸-Vasopressin Binding Liver (V₁) (converted)): 28.4 µM
IC50 ([1]; rat kidney medulla membranes, molar IC₅₀ in brackets, based on MW of 700, read-out: IC₅₀ Values ³H-Arg⁸-Vasopressin Binding Kidney (V₂) (converted)): 19 µM
IC50 ([1]; rat kidney medulla membranes, value in µg/ml (exact MW not known), read-out: IC₅₀ Values ³H-Arg⁸-Vasopressin Binding Kidney (V₂) (converted)): 18.3 µM
IC50 ([2]; kidney medulla, molar IC₅₀ in brackets, based on MW of 700, read-out: IC₅₀ Values AVP-stimulated Ad. Cyclase Kidney (V₂) (converted)): 20 µM
IC50 ([2]; kidney medulla, value in µg/ml (exact MW not known), read-out: IC₅₀ Values AVP-stimulated Ad. Cyclase Kidney (V₂) (converted)): 19.3 µM
Compound: CCC(C)C1NC(=O)C2CCCN2C(=O)C(Cc2ccccc2)N(C)C(=O)C2CCCNN2C(=O)C2CCCNN2C(=O)C(CC(C)C)N(O)C1=O (centres unmarked) [Component D]

Compound: CCC(C)C1NC(=O)C(Cc2ccccc2)NC(=O)C2CCCN2C(=O)C(Cc2ccccc2)N(C)C(=O)C2CCCNN2C(=O)C2CCCNN2C1=O (centres unmarked) [Example 9] (cyclo([X1][X1][NMeF]PFI); configuration not given here)
IC50 (oxytocin receptor): 170 ± 15 nM

Compound: CCC(C)C1C(=O)N2NCCCC2C(=O)N2NCCCC2C(=O)N(C)C(Cc2ccccc2)C(=O)N2CCCC2C(=O)NC(Cc2ccccc2)C(=O)N1O (centres unmarked) [Formula I] (cyclo([ξN(OH)Ile(3ξ)][X1][X1][NMeF]PF); configuration not given here)
IC50 (oxytocin receptor): 370 ± 70 nM
IC50 (V₁(pressor)-receptor): 11.7 ± 1.7 µM
IC50 [1]: 9.8 ± 1.7 µM
IC50 [2]: 10.2 ± 1.1 µM
